The text below walks through data of patent US20240382483A1, “HETEROCYCLIC EGFR INHIBITORS FOR USE IN THE TREATMENT OF CANCER” (Blueprint Medicines Corporation, priority 2021, published 2024).

In test [1] the test system is EGFR mutant NSCLC (EGFR M+). The conditions noted are these: NSCLC patients; cited from earlier work.
The target in a further test is T1, EGFR (L858R T790M C797S) (Homo sapiens, UniProt P00533, C797S/L858R/T790M).
T1 construct: purchased SignalChem E10-122VG
Briefly: Biochemical EGFR inhibition assay (Caliper mobility shift), EGFR LRTMCS. The conditions noted are these: LRTMCS (PH) IC50 (nM) @ 1 mM ATP (Num), EGFR LRTMCS mutant. In short, it runs like this: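 Caliper mobility shift read-out: product and substrate peptides separated by electrophoresis and quantified. Reactions at 25° C. taken to 10–20% peptide phosphorylation, quenched with 35 mM EDTA. Apparent IC50 from percent activity vs log [compound].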

For test [2], the target named is T2, intracellular phosphorylation of EGFR in NCI-H1975 cell line that harbors the EGFR L858R T790M mutations (Homo sapiens, UniProt P00533, L858R/T790M).
T2 construct: NCI-H1975 cell line that harbors the EGFR L858R T790M mutations (ATCC, CRL-5908); host or cells: NCI-H1975
Briefly: NCI-H1975 pEGFR AlphaLISA assay. It counts as cell-based. To be noted: NCI-H1975 cells (EGFR L858R T790M), p-EGFR (Tyr1068), 4-5 hours incubation; read-out: Ext pEGFR H1975 GMean IC50 (nM) Protocol: @Pharmaron AlphaLISA (Num). The procedure: On the next day, the test compounds and DMSO control were added into H1975 cell plate followed by incubation at 37C/5% CO2 for 4-5 hours. […] Then 5 μL of a donor bead mix was added to each well followed by overnight incubation at room temperature in dark. On the next day, the plate was read at a compatible plate reader to obtain pEGFR signal. Percent of pEGFR inhibition was plotted against log concentration of compounds to generate IC50 values.
A general note: In Alpha technology, singlet oxygen from a donor bead excites a nearby acceptor bead.

T2 sequence (P00533 25-1210 T790M/L858R): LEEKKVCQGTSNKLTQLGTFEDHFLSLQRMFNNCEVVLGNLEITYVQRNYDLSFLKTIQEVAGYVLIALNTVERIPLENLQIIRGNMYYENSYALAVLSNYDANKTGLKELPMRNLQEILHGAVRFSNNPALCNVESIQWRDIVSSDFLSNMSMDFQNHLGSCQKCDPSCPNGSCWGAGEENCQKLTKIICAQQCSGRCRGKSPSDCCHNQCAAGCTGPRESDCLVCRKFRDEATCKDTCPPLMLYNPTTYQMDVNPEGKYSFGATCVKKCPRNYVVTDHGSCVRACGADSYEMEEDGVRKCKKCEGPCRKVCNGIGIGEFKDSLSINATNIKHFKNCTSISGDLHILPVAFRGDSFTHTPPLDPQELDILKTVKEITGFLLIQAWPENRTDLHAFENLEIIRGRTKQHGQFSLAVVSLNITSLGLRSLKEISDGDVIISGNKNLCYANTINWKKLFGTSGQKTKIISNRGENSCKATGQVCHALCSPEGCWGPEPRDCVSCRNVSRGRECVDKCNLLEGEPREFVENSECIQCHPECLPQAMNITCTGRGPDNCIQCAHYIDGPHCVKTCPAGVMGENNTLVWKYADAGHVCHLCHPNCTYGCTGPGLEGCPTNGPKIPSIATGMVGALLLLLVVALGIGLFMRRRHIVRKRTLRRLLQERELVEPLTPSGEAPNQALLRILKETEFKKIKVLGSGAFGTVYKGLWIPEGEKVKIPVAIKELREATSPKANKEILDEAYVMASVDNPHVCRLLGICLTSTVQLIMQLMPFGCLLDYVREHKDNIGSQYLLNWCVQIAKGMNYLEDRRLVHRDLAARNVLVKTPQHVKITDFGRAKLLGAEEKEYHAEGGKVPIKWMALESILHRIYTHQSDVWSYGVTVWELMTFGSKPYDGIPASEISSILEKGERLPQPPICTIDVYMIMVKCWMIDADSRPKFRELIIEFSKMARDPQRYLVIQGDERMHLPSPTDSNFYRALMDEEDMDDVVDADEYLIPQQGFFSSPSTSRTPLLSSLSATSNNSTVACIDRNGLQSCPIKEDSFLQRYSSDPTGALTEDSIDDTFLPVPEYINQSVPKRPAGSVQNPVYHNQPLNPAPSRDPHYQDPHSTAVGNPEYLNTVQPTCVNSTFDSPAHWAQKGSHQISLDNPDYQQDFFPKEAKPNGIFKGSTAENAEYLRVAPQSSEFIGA
T1 sequence (P00533 25-1210 T790M/C797S/L858R): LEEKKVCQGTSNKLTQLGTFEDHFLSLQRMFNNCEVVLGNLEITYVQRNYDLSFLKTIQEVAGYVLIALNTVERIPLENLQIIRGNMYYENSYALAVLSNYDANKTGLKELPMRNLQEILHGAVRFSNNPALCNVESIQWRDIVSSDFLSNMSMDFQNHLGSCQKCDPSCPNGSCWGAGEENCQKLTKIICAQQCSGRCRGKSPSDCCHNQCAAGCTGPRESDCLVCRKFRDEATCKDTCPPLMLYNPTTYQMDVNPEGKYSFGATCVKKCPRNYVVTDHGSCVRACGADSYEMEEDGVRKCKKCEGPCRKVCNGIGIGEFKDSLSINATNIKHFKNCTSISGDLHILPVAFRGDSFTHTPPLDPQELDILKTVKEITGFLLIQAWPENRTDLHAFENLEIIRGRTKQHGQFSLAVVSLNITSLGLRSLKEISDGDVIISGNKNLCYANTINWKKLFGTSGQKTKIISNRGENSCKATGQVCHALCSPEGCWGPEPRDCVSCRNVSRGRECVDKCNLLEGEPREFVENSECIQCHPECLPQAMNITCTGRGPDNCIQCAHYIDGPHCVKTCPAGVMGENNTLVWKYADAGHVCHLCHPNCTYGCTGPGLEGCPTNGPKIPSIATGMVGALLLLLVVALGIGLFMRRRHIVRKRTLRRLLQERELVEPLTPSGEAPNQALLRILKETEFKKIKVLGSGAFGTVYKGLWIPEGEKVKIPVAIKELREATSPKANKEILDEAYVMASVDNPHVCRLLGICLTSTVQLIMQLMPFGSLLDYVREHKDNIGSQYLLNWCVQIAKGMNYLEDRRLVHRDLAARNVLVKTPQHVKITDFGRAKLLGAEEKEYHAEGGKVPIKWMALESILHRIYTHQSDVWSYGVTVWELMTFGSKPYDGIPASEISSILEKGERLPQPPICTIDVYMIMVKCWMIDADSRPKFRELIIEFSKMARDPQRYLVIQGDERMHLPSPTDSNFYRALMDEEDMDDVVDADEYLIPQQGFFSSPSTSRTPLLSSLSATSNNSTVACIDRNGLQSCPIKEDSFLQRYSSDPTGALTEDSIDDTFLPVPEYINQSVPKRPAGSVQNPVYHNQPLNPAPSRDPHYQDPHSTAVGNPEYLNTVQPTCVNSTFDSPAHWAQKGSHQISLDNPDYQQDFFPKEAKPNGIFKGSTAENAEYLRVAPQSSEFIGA

For `C=CC(=O)Nc1cc(Nc2nccc(-c3cn(C)c4ccccc34)n2)c(OC)cc1N(C)CCN(C)C` [osimertinib], the “time of treatment until resistance” value in test [1] is listed as “approximately 10 months”.

A word on the IC50: it is the point on the concentration scale where inhibition reaches its midpoint. For `CO[C@@H]1CCN(c2nccc(Nc3cc4c(C(C)C)cnc(N5CC(C(=O)N(C)C)C5)c4cn3)n2)C[C@@H]1O` (single isomer, unassigned) [Example 120, 1-(6-((2-((3S,4R)-3-hydroxy-4-methoxypiperidin-1-yl)pyrimidin-4-yl)amino)-4-isopropyl-2,7-naphthyridin-1-yl)-N,N-dimethylazetidine-3-carboxamide or 1-(6-((2-((3R,4S)-3-hydroxy-4-methoxypiperidin-1-yl)pyrimidin-4-yl)amino)-4-isopropyl-2,7-naphthyridin-1-yl)-N,N-dimethylazetidine-3-carboxamide], the figures for the IC50 (at EGFR (L858R T790M C797S); in test [2]) were 20 to 30 nM and 30 to 50 nM, respectively.

Regarding `CO[C@H]1CCN(c2cc(Nc3cc4c(C(C)C)ccc(N5CC(n6ccnn6)C5)c4cn3)ccn2)C[C@@H]1O` (single isomer, unassigned) [Example 127, (3S,4S)-1-(4-((8-(3-(1H-1,2,3-triazol-1-yl)azetidin-1-yl)-5-isopropylisoquinolin-3-yl)amino)pyridin-2-yl)-4-methoxypiperidin-3-ol or (3R,4R)-1-(4-((8-(3-(1H-1,2,3-triazol-1-yl)azetidin-1-yl)-5-isopropylisoquinolin-3-yl)amino)pyridin-2-yl)-4-methoxypiperidin-3-ol], the IC50 was 15 to 20 nM at EGFR (L858R T790M C797S) and 10 to 20 nM in test [2].

In the case of `CC(C)c1ncc(N2CC(F)C2)c2cnc(Nc3ccnc(N4CC[C@@H](O)[C@@](C)(F)C4)n3)cc12` [Example 49, (3S,4R)-3-fluoro-1-(4-((8-(3-fluoroazetidin-1-yl)-5-isopropyl-2,6-naphthyridin-3-yl)amino)pyrimidin-2-yl)-3-methylpiperidin-4-ol], the results for the IC50 (on EGFR (L858R T790M C797S); in test [2]) were 15 to 20 nM and 30 to 50 nM, respectively.

For `CO[C@H]1CCN(c2nccc(Nc3cc4c(C(C)C)cnc(N5CCC56CN(C)C6)c4cn3)n2)C[C@@]1(C)F` (single isomer, unassigned) [Example 43, N-(2-((3R,4S)-3-fluoro-4-methoxy-3-methylpiperidin-1-yl)pyrimidin-4-yl)-5-isopropyl-8-(6-methyl-1,6-diazaspiro[3.3]heptan-1-yl)-2,7-naphthyridin-3-amine or N-(2-((3S,4R)-3-fluoro-4-methoxy-3-methylpiperidin-1-yl)pyrimidin-4-yl)-5-isopropyl-8-(6-methyl-1,6-diazaspiro[3.3]heptan-1-yl)-2,7-naphthyridin-3-amine], the IC50 at EGFR (L858R T790M C797S) was 15 to 20 nM; in test [2], more than 50 nM.

`CC(C)c1cnc(N2CC[C@@H]2C)c2cnc(Nc3ccnc(N4CC[C@H](O)[C@H](F)C4)n3)cc12` (single isomer, unassigned) [Example 160, (3R,4S)-3-fluoro-1-(4-((5-isopropyl-8-((S)-2-methylazetidin-1-yl)-2,7-naphthyridin-3-yl)amino)pyrimidin-2-yl)piperidin-4-ol or (3R,4S)-3-fluoro-1-(4-((5-isopropyl-8-((R)-2-methylazetidin-1-yl)-2,7-naphthyridin-3-yl)amino)pyrimidin-2-yl)piperidin-4-ol]: the IC50 on EGFR (L858R T790M C797S) is less than 15 nM; in test [2], 10 to 20 nM.

Turning to `CO[C@@H]1CCN(c2nccc(Nc3cc4c(C(C)C)ccc(N5CC6(CCS6(=O)=O)C5)c4cn3)n2)C[C@@H]1O` (single isomer, unassigned) [Example 125, 6-(3-((2-((3S,4R)-3-hydroxy-4-methoxypiperidin-1-yl)pyrimidin-4-yl)amino)-5-isopropylisoquinolin-8-yl)-1-thia-6-azaspiro[3.3]heptane 1,1-dioxide or 6-(3-((2-((3R,4S)-3-hydroxy-4-methoxypiperidin-1-yl)pyrimidin-4-yl)amino)-5-isopropylisoquinolin-8-yl)-1-thia-6-azaspiro[3.3]heptane 1,1-dioxide], the IC50 at EGFR (L858R T790M C797S) is less than 15 nM; in test [2], 30 to 50 nM.

On to `CO[C@H]1CCN(c2nccc(Nc3cc4c(C(C)C)cnc(N5C[C@H](O)[C@H]5C)c4cn3)n2)C[C@H]1F` [Example 149, (2R,3S)-1-(6-((2-((3R,4S)-3-fluoro-4-methoxypiperidin-1-yl)pyrimidin-4-yl)amino)-4-isopropyl-2,7-naphthyridin-1-yl)-2-methylazetidin-3-ol], for which the half-inhibitory concentration (IC50) at EGFR (L858R T790M C797S) is less than 15 nM; in test [2], 10 to 20 nM.

Take `CC(C)c1cnc(N2CCC23CN(C)C3)c2cnc(Nc3ccnc(N4CC[C@@]5(CCO5)C(F)(F)C4)n3)cc12` (single isomer, unassigned) [Example 194, (R)—N-(2-(5,5-difluoro-1-oxa-7-azaspiro[3.5]nonan-7-yl)pyrimidin-4-yl)-5-isopropyl-8-(6-methyl-1,6-diazaspiro[3.3]heptan-1-yl)-2,7-naphthyridin-3-amine or (S)—N-(2-(5,5-difluoro-1-oxa-7-azaspiro[3.5]nonan-7-yl)pyrimidin-4-yl)-5-isopropyl-8-(6-methyl-1,6-diazaspiro[3.3]heptan-1-yl)-2,7-naphthyridin-3-amine]: the IC50 at EGFR (L858R T790M C797S) is less than 15 nM; in test [2], more than 50 nM.

As to `CC(C)c1cnc(N2CC3(C2)CC3(F)F)c2cnc(Nc3ccnc(N4CC[C@@H](O)[C@@](C)(F)C4)n3)cc12` [Example 59, (3S,4R)-1-(4-((8-(1,1-difluoro-5-azaspiro[2.3]hexan-5-yl)-5-isopropyl-2,7-naphthyridin-3-yl)amino)pyrimidin-2-yl)-3-fluoro-3-methylpiperidin-4-ol], the IC50 on EGFR (L858R T790M C797S) was less than 15 nM; in test [2], 10 to 20 nM.

As for `CC(=O)N1CC(Cc2ccc(C(C)C)c3cc(Nc4ccnc(N5CC[C@@H](O)[C@@](C)(F)C5)n4)ncc23)C1` [Example 2, 1-(3-((3-((2-((3S,4R)-3-fluoro-4-hydroxy-3-methylpiperidin-1-yl)pyrimidin-4-yl)amino)-5-isopropylisoquinolin-8-yl)methyl)azetidin-1-yl)ethan-1-one], the IC50 at EGFR (L858R T790M C797S) is less than 15 nM; in test [2] it was more than 50 nM.

On to `CC(C)c1cnc(N2CC(N3CCCC3=O)C2)c2cnc(Nc3ccnc(N4CC[C@@H](O)[C@@](C)(F)C4)n3)cc12` [Example 91, 1-(1-(6-((2-((3S,4R)-3-fluoro-4-hydroxy-3-methylpiperidin-1-yl)pyrimidin-4-yl)amino)-4-isopropyl-2,7-naphthyridin-1-yl)azetidin-3-yl)pyrrolidin-2-one], for which the IC50 on EGFR (L858R T790M C797S) is 15 to 20 nM; in test [2], more than 50 nM.

For the molecule `CC(C)c1cnc(N2CCCC2)c2cnc(Nc3ccnc(N4CC[C@@H](O)[C@@](C)(F)C4)n3)cc12` [Example 45, (3S,4R)-3-fluoro-1-(4-((5-isopropyl-8-(pyrrolidin-1-yl)-2,7-naphthyridin-3-yl)amino)pyrimidin-2-yl)-3-methylpiperidin-4-ol], the IC50 at EGFR (L858R T790M C797S) was 20 to 30 nM; in test [2], more than 50 nM.
